Measurements as given in ChEMBL document CHEMBL3045940, “In vivo peritoneal antiangiogenesis and in vitro antiproliferative properties of some bischalcone derivatives” (Med Chem Res, 2012).
pIC50: −log10 of the molar value. Activity calls are given as the source filed them. The calls are words filed in the database; no cut-off is given here.

Assays:
Mus musculus = test: Antiangiogenic activity in EAT cells xenografted in Mus musculus Swiss albino (mouse) assessed as reduction in vasculaization in peritoneal cavity drug administered on day 7,9 and 11 after tumor transplantation; type: functional, organism-based
[1] = Antitumor activity against Mus musculus (mouse) EAT cells xenografted in Mus musculus Swiss albino (mouse) assessed as reduction in ascites volume drug administered on day 7,9 and 11 after tumor transplantation […]; type: functional
EAT [2] = test: Antitumor activity against Mus musculus (mouse) EAT cells xenografted in Mus musculus Swiss albino (mouse) assessed as decrease in tumor burden measured as reduction in body weight drug administered on day 7,9 and 11 after tumor transplantation; type: functional, cell-based
EAT [3] = test: Antitumor activity against Mus musculus (mouse) EAT cells xenografted in Mus musculus Swiss albino (mouse) assessed as decrease in cell viability drug administered on day 7,9 and 11 after tumor transplantation; type: functional, cell-based
HepG2 [4] = test: Induction of apoptosis in Homo sapiens (human) HepG2 cells assessed as DNA fragmentation at 10 uM after 24 hr by agarose gel electrophoresis; type: functional, cell-based
EAT [5] = test: Induction of apoptosis in Mus musculus (mouse) EAT cells xenografted in Mus musculus Swiss albino (mouse) assessed as DNA fragmentation drug administered on day 7,9 and 11 after tumor transplantation by agarose gel electrophoresis; type: functional, cell-based
EAT [6] = test: Induction of apoptosis in Mus musculus (mouse) EAT cells xenografted in Mus musculus Swiss albino (mouse) assessed as appearance of condensed nuclei, membrane blebbing and formation of apoptotic bodies drug administered on day 7,9 and 11 after tumor transplantation by Giemsa, ethidium bromide/acridine orange staining analysis; type: functional, cell-based
HepG2 [7] = test: Antiproliferative activity against Homo sapiens (human) HepG2 cells after 48 hr by MTT assay; type: functional, cell-based; details: HepG2, 48 h
HeLa = test: Antiproliferative activity against Homo sapiens (human) HeLa cells after 48 hr by MTT assay; type: functional, cell-based

pIC50 (HepG2 [7]) | pIC50 (HeLa) | Structure (SMILES) | inhibition (Mus musculus) | inhibition (INH) [1] [%] | inhibition (EAT [2]) | inhibition (EAT [3]) | Activity (HepG2 [4]) | Activity (EAT [5]) | Activity (EAT [6])
4.36 | 4.38 | COc1cc(/C=C2\CC/C(=C\c3ccc(O)c(OC)c3)C2=O)ccc1O | Active | 70 | Active | Active | Active | Active | Active
4.32 | 4.41 | O=C1/C(=C/c2ccc(F)cc2)CC/C1=C\c1ccc(F)cc1 | Active | 70 | Active | Active | Active | Active | Active
3.97 | 3.96 | COc1ccc(/C=C2\CC/C(=C\c3ccc(OC)c(OC)c3)C2=O)cc1OC | Active | 70 | Active | Active | Active | Active | Active
